Reference: BindingDB's records for doi:10.1016/j.bmcl.2006.10.059 (Merck Research Laboratories, 2007)

Test: Inhibition of MCP1-stimulated chemotaxis in monocytes transfected with human CCR2

Structure (SMILES) | IC50
CC(=O)Nc1nc([C@@H](CCN2CCC3(C=Cc4ccccc43)CC2)C(=O)NCc2cc(C(F)(F)F)cc(C(F)(F)F)c2)cs1 [(2R)-N-{[3,5-bis(trifluoromethyl)phenyl]methyl}-2-(2-acetamido-1,3-thiazol-4-yl)-4-{spiro[indene-1,4'-piperidine]-1'-yl}butanamide] | 27 nM
CC(=O)Nc1nc([C@H](CCN2CCC3(C=Cc4ccccc43)CC2)C(=O)NCc2cc(C(F)(F)F)cc(C(F)(F)F)c2)cs1 [(2S)-N-{[3,5-bis(trifluoromethyl)phenyl]methyl}-2-(2-acetamido-1,3-thiazol-4-yl)-4-{spiro[indene-1,4'-piperidine]-1'-yl}butanamide] | 5.3 nM
CNC(=O)Nc1nc([C@@H](CCN2CCC(c3ccccc3)CC2)C(=O)NCc2cc(C(F)(F)F)cc(C(F)(F)F)c2)cs1 [(R)-1-(4-(1-(3,5-bis(trifluoromethyl)benzylamino)-1-oxo-4-(4-phenylpiperidin-1-yl)butan-2-yl)thiazol-2-yl)-3-methylurea] | 87 nM
CNC(=O)Nc1nc([C@H](CCN2CCC(c3ccccc3)CC2)C(=O)NCc2cc(C(F)(F)F)cc(C(F)(F)F)c2)cs1 [(S)-1-(4-(1-(3,5-bis(trifluoromethyl)benzylamino)-1-oxo-4-(4-phenylpiperidin-1-yl)butan-2-yl)thiazol-2-yl)-3-methylurea] | 1.8 nM
CC(=O)Nc1nc([C@H](CCN2CCC(c3ccccc3)CC2)C(=O)NCc2cc(C(F)(F)F)cc(C(F)(F)F)c2)cs1 [(S)-N-(3,5-bis(trifluoromethyl)benzyl)-2-(2-acetamidothiazol-4-yl)-4-(4-phenylpiperidin-1-yl)butanamide] | 0.7 nM
CC(=O)Nc1nc(C(CCN2CCC3(C=Cc4ccccc43)[C@@H](C)C2)C(=O)NCc2cc(C(F)(F)F)cc(C(F)(F)F)c2)cs1 (stereo partly drawn) [N-{[3,5-bis(trifluoromethyl)phenyl]methyl}-2-(2-acetamido-1,3-thiazol-4-yl)-4-[(5'R)-5'-methylspiro[indene-1,4'-piperidine]-1'-yl]butanamide] | 0.6 nM
CC(=O)Nc1nc(C(CCN2CCC3(C=Cc4ccccc43)CC2)C(=O)NCc2cc(C(F)(F)F)cc(C(F)(F)F)c2)cs1 (configuration not stated) [N-{[3,5-bis(trifluoromethyl)phenyl]methyl}-2-(2-acetamido-1,3-thiazol-4-yl)-4-{spiro[indene-1,4'-piperidine]-1'-yl}butanamide] | 0.7 nM
